Patent publication US7741281B2, “Hepatitis C virus inhibitors” (Bristol-Myers Squibb Company, priority 2005, dated 2010)
Where two headings read alike, the source gives them in different places.

How the values were obtained:
[1] = biological target: T1, porcine pancreatic elastase (PPE) (Sus scrofa, UniProt P00772); assay: Specificity assay, porcine pancreatic elastase (pNA substrate); format: biochemical; details: read-out: PPE activity in the specificity assays (IC50)
T1 construct: purchased Sigma or EMDbiosciences
Procedure: (§1) The specificities of compounds of the present disclosure were determined against a variety of serine proteases: human neutrophil elastase (HNE), porcine pancreatic elastase (PPE) and human pancreatic chymotrypsin and one cysteine protease: human liver cathepsin B. In all cases, a 96-well plate format protocol using colorimetric p-nitroaniline (pNA) substrate or fluorometric Amino-Methyl-Coumarin (AMC) substrate, specific for each enzyme was used as described previously (PCT Patent Application No. WO 00/09543) with some modifications. All enzymes were purchased from Sigma or EMDbiosciences while the substrates were from Bachem.
(§2) Each pNA assay included a 2 h enzyme-inhibitor pre-incubation at room temperature followed by addition of substrate and hydrolysis to ˜15% conversion as measured on a Spectramax Pro microplate reader. The cathepsin B assay was initiated by adding substrate to a 10 min enzyme-inhibitor pre-incubation at room temperature, and the assay plate measured immediately using the Cytofluor Series 4000. Compound concentrations varied from 100 to 0.4 μM depending on their potency.
(§3) The final conditions for each assay were as follows: […]
(§4) The percentage of inhibition was calculated using the formula: [1−((UVinh−UVblank)/(UVctl−UVblank))]×100 […]

human liver cathepsin B = biological target: T2, human liver cathepsin B (Homo sapiens, UniProt P07858); assay: Specificity assay, cathepsin B (AMC substrate); format: biochemical; details: read-out: Cathepsin B activity in the specificity assays (IC50)
T2 construct: purchased Sigma or EMDbiosciences; host or cells: human liver (as named)
Procedure: as §1, §2, §3, §4

[2] = system: HCV replicon in HUH-7 cells; assay: HCV replicon FRET assay; format: cell-based, HCV strain 1b; details: Hepatitis C virus
Description: An HCV replicon whole cell system was established as described by Lohmann V, Korner F, Koch J, Herian U, Theilmann L, Bartenschlager R., Science 285(5424):110-3 (1999). This system enabled us to evaluate the effects of our HCV Protease compounds on HCV RNA replication. Briefly, using the HCV strain 1b sequence described in the Lohmann paper (Assession number: AJ238799), an HCV cDNA was synthesized by Operon Technologies, Inc. (Alameda, Calif.), and the full-length replicon was then assembled in plasmid pGem9zf(+) (Promega, Madison, Wis.) using standard molecular biology techniques. The replicon consists of (i) the HCV 5′ UTR fused to the first 12 amino acids of the capsid protein, (ii) the neomycin phosphotransferase gene (neo), (iii) the IRES from encephalomyocarditis virus (EMCV), and (iv) HCV NS3 to NS5B genes and the HCV 3′ UTR. Plasmid DNAs were linearized with ScaI and RNA transcripts were synthesized in vitro using the T7 MegaScript transcription kit (Ambion, Austin, Tex.) according to manufacturer's directions. In vitro transcripts of the cDNA were transfected into the human hepatoma cell line, HUH-7. […] Resulting cell lines were characterized for positive and negative strand RNA production and protein production over time.
The HCV replicon FRET assay was developed to monitor the inhibitory effects of compounds described in the disclosure on HCV viral replication. HUH-7 cells, constitutively expressing the HCV replicon, were grown in Dulbecco's Modified Eagle Media (DMEM) (Gibco-BRL) containing 10% Fetal calf serum (FCS) (Sigma) and 1 mg/ml G418 (Gibco-BRL). Cells were seeded the night before (1.5×10^4 cells/well) in 96-well tissue-culture sterile plates. Compound and no compound controls were prepared in DMEM containing 4% FCS, 1:100 Penicillin/Streptomysin (Gibco-BRL), 1:100 L-glutamine and 5% DMSO in the dilution plate (0.5% DMSO final concentration in the assay). Compound/DMSO mixes were added to the cells and incubated for 4 days at 37° C. After 4 days, cells were first assessed for cytotoxicity using alamar Blue (Trek Diagnotstic Systems) for a CC50 reading. The toxicity of compound (CC50) was determined by adding 1/10th volume of alamar Blue to the media incubating the cells. After 4 hours, the fluorescence signal from each well was read, with an excitation wavelength at 530 nm and an emission wavelength of 580 nm, using the Cytofluor Series 4000 (Perspective Biosystems). Plates were then rinsed thoroughly with Phosphate-Buffered Saline (PBS) (3 times 150 μl). The cells were lysed with 25 μl of a lysis assay reagent containing an HCV protease substrate (5× cell Luciferase cell culture lysis reagent (Promega #El 53A) diluted to 1× with distilled water, NaCl added to 150 mM final, the FRET peptide substrate (as described for the enzyme assay above) diluted to 10 μM final from a 2 mM stock in 100% DMSO. […]. The plate was then placed into the Cytofluor 4000 instrument which had been set to 340 nm excitation/490 nm emission, automatic mode for 21 cycles and the plate read in a kinetic mode. EC50 determinations were carried out as described for the IC50 determinations.

T1 sequence (P00772 27-266): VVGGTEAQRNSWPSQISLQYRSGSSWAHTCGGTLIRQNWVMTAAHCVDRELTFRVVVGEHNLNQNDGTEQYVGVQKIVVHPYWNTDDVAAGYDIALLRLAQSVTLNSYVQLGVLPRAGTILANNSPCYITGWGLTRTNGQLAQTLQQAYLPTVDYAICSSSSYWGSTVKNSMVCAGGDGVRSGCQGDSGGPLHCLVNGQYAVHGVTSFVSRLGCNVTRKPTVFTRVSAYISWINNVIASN

COc1c(O[C@@H]2C[C@H]3C(=O)N[C@]4(C(=O)NS(=O)(=O)C5CC5)C[C@H]4/C=C\CCCCC[C@H](NC(=O)OC(C)(C)C)C(=O)N3C2)ccc2c(Cl)nccc12 [Compound 3]
IC50 [1]: > 100 µM
IC50 (human liver cathepsin B): 100 µM
EC50 ([2]; 96 h, HUH-7 replicon cells, 4 days, read-out: EC50 value in the replicon FRET assay): 0.0146 µM
EC50 ([2]; Huh-7, HCV replicon, read-out: EC50 Activity Range): < 0.1 µM
